The subject of one data set is K-ras^ts NRK cells. As to the kind of experiment: Propagation inhibitory effect on K-ras^ts NRK cells. Format: cell-based, rat. The conditions noted are these: for IC50: Rattus norvegicus, NRK, 72 h, K-ras^ts NRK, 3 days, read-out: IC50, cell propagation. As for the experimental part: (§1) Normal rat kidney cell, NRK-49 (Dainihon Pharmaceutical K.K.) and normal mouse cell, NIH 3T3 (JCRB Cell Bank); and K-ras NIH 3T3, H-ras NIH 3T3, and N-ras NIH 3T3 (Tokyo University, Medical Science Institute, Japan) which are cell lines that have been transformed with Kirsten sarcoma virus, Harvey sarcoma virus, and neuroblastoma virus, respectively, were incubated at 37° C. in the similar manner.
Cells of K-ras^ts -NRK were inoculated in wells of 24 wells plastic plate (Costar 3524, manufactured by Costar) at 1.0×10^4 /DMEM 1 ml/well, and the plate was incubated in an incubator of 5% CO2 at 33° C. for one day. III-121C was added to the thus incubated cells to different concentrations and the incubation was continued. After predetermined periods, the medium was removed of the cell culture, and cells were peeled off the wall of the well by using trypsin. DMEM was added to the well to uniformly suspend the cells, and the cell concentration in the suspension was measured with Coulter counter (ZM type manufactured by Coulter Electronics) to obtain the results shown in FIG. 7.
(§2) Next, cells of different types were inoculated in wells of 12 wells plastic plate (Costar 3521, manufactured by Costar) at 2.0×10^4 /DMEM 1 ml/well, and the plate was incubated in an incubator of 5% CO2 for one day. III-121C was added to the thus incubated cells to different concentrations and incubation was continued for another 3 days. The number of cells was measured by repeating the above-described procedure to determine the concentration (IC50) of the III-121C required to inhibit the cell propagation to 50%.

The test system of data set [1] is K-ras^ts-NRK cells. As to the kind of experiment: Activity to induce changes in cell morphology, K-ras^ts-NRK cells. The settings on record: 2 days. Format: cell-based, rat. As for the experimental part:
as §1
(§3) The effect of the III-121C on various types of cultured cells was evaluated by inoculating each type of cells in wells of 24 wells plastic plate (Costar 3524, manufactured by Costar) at 3×10^4 cells/1 ml medium/well; incubating the plate in an incubator of 5% CO2 for one day; and adding the III-121C sample to the cell cultures to observe the cell morphology for another two days.

The nature of data set [2]: Acute toxicity (LD50) on mouse upon intravenous injection. It is filed as in vivo. The settings on record: in vivo, intravenous injection. As for the experimental part: (§4) Toxicity (LD50) on mouse of III-121C upon intravenous injection was measured.
In a further data set the test system is mouse. The description is as above. It is filed as in vivo. The conditions noted are these: compared to conventional alkaloid carcinostatics of plant origin. As for the experimental part:
as §4

Data set [3] relates to K-ras-NRK cells. The data set can be described thus: Action mechanism: flow-cytometric DNA content analysis of K-ras-NRK cells. It is filed as cell-based, rat. The conditions noted are these: 24 hours; III-121C 0.3 and 1 μg/ml, vinblastine 0.1 μg/ml (FIG. 11). As for the experimental part: FIGS. 11(a) to (d) are graphs showing the results of flow-cytometric analysis wherein the number of cells is depicted in relation to their DNA content, upon addition of no reagent (FIG. 11(a)), 0.3 μg/ml of III-121C (FIG. 11(b)), 1 μg/ml of III-121C (FIG. 11(c)), and 0.1 μg/ml of vinblastine (FIG. 11(d)) to the K-ras NRK cell culture.
To the cells of K-ras-NRK in their propagation was added either one of III-121C and vinblastine. No reagent was added to the control cells. After 24 hours from the addition, the cells were fractionated with a cell sorter to examine the DNA quantity in relation to the number of the cells.

The subject of data set [4] is K-ras-NRK cells. The data set can be described thus: Activity to induce changes in cell morphology, K-ras-NRK cells. It is filed as cell-based, rat. The conditions noted are these: 0.3 μg/ml, 2 days. As for the experimental part: as §3
K-ras-NRK is a transformed cell line, and the cells appear round with its central portion raised.

Data set [5] deals with K-ras^ts-NRK cells. As to the kind of experiment: Action mechanism: morphology / M phase observation in K-ras^ts-NRK cells. It is filed as cell-based, rat. As for the experimental part:
Before the addition of the III-121C, the cells grew atop the other and had projections or processes on their surface (FIG. 9(a)).
The procedure as described above was repeated by replacing the III-121C with 0.1 μg/ml of vinblastine, 0.1 μg/ml of vincristine and 0.1 μg/ml of colchicine, which are known as microtubule formation inhibitors.

The next data set concerns RSV^ts-NRK cells. As to the kind of experiment: Activity to induce changes in cell morphology, RSV^ts-NRK cells. It is filed as cell-based, rat. The settings on record: 0.3 μg/ml, 2 days. As for the experimental part:
as §1, §3
RSV^ts -NRK is a cell line that had been transformed with an src oncogene, and is temperature sensitive as in the case of K-ras^ts -NRK.

A further data set has as its system K-ras NRK cells. The data set can be described thus: Propagation inhibitory effect on K-ras NRK cells. Format: cell-based. The settings on record: Rattus norvegicus, 72 h, 3 days, read-out: IC50, cell propagation. As for the experimental part:
as §2

The structures appear in SMILES notation. In brackets after ≈: the same amount, converted by molar mass. Entries after “also recorded” stand apart in the source; their conditions may differ. Read-outs that look alike come from different tables or passages of the source.

The IC50 is the point on the concentration scale where inhibition reaches its midpoint. As a reminder, the LD50 is the dose expected to kill half of the subjects tested. Read a high LD50 as lower toxicity. As to `CCC12CC(C(=O)OC)=C3Nc4cc5c(cc4C34CCN(CC3OC31)C42)C1C(O5)C(O)C2(CC)CC(C(=O)OC)=C3Nc4c(cc(O)c(OC)c4OC)C34CCN1C42` (centres unmarked) [III-121C], in the data set on K-ras^ts NRK cells (K-ras^ts-NRK, 33° C., different concentrations), the “cell propagation inhibition (cell growth curve, FIG. 7)” value was “inhibited the cell propagation in concentration dependent manner”. The IC50 is 0.29 µg/mL (≈ 0.365 µM) in the data set with K-ras^ts NRK cells (33° C.), 0.2 µg/mL (≈ 0.252 µM) with K-ras^ts NRK cells (39° C.) and 0.4 µg/mL (≈ 0.503 µM) with K-ras NRK cells. For the same compound, the “change in cell morphology and growth habits” value in the data set with K-ras^ts-NRK cells [1] (33° C., 0.3 μg/ml) was “the cells changed their morphology and growth habits to those of normal cells”; in the data set on K-ras^ts-NRK cells [1] (39° C.) it was “the cell morphology and growth habits were the same as the K-ras^ts -NRK cells that had been incubated in the absence of III-121C”; in the data set on K-ras-NRK cells [4] it was “the cells changed their morphology and growth habits to those of normal cells, and became flat with an increased area of contact”; in the data set on K-ras^ts-NRK cells [5] (33° C., 1 μg/ml, after two days), “such change in the cell morphology and growth habits were even more significant”. The same compound registered an LD50 in data set [2] of 24.3 mg/kg. Further, the “acute toxicity in words” value with mouse is on record as “weaker toxicity; also recorded: low acute toxicity”. Besides, in the data set with K-ras-NRK cells [3], the “cell cycle / cell division inhibition” value is “Absence of the cell division inhibitory activity”. In addition, the “distribution of DNA quantity in cells” value with K-ras-NRK cells [3] is recorded as “distribution of the DNA quantity in the cells was identical with that of the control cells”. Also, in the data set with K-ras^ts-NRK cells [5] (1 μg/ml, 33° C.), the anti-ras activity entry is on record as “has an anti-ras activity”. For the same compound, the “change in cell morphology” value was “the cells no longer grew atop the other and became flat” with K-ras^ts-NRK cells [5] (33° C., 1 μg/ml, after one day); “changed their cell morphology to have a rounded appearance similar to the morphology of the normal NRK-49 cells” with RSV^ts-NRK cells (33° C.); “changed their cell morphology to have a rounded appearance similar to the morphology of the normal NRK-49 cells” in the data set with RSV^ts-NRK cells (39° C.). In addition, the “cell division inhibitory activity” value with K-ras^ts-NRK cells [5] (compared with microtubule inhibitors) was “free from the cell division inhibitory activity; also recorded: not associated with the cell division inhibitory action”.

The record behind these values is patent US5559115A, “Oncogene function-inhibitory agent, method for inhibiting oncogene function, and treatment of cancer” (Terumo Kabushiki Kaisha, priority 1993, dated 1996).
